Data published in patent US20230143612A1 (Arbutus Biopharma Corporation, priority 2020, published 2023).

Biological target: PD-L1 His protein / PD-1 Fc protein (Homo sapiens, UniProt Q9NZQ7)
Experiment: HTRF Assay (PD-1/PD-L1 interaction)
Type: binding
Details: PD-L1 His 6 nM, PD-1 Fc 6 nM
Summary of the method: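 Compounds tested from 20 μM down to 0.001 μM (3-fold) against 6 nM PD-L1 His and 6 nM PD-1 Fc, 15 min room temperature incubation. Detection after 1 h at room temperature with Tb cryptate anti-6HIS and XL665 anti-human IgG reagents (mixture at 0.35 nM and 6.7 nM), HTRF signal.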

PD-L1 His protein / PD-1 Fc protein, sequence (Q9NZQ7 19-238 limits assumed): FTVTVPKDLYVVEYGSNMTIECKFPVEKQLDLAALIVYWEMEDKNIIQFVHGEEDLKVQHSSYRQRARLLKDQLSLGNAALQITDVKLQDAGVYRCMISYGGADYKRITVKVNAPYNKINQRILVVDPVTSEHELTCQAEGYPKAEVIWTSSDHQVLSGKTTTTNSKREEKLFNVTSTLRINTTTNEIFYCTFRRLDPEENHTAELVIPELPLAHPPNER

| Compound | IC50 [nM] |
| --- | --- |
| COc1nc(-c2cccc(-c3cccc(-c4cc5c(=O)n(C)c(CN6CC(C)(O)C6)nn5c4)c3Cl)c2Cl)cc(Cl)c1CNC[C@@H]1CCC(=O)N1 [Example 492, (S)-6-(2,2′-Dichloro-3′-(4-chloro-6-methoxy-5-((((5-oxopyrrolidin-2-yl)methyl)amino)methyl)pyridin-2-yl)-[1,1′-biphenyl]-3-yl)-2-((3-hydroxy-3-methylazetidin-1-yl)methyl)-3-methylpyrrolo[2,1-f][1,2,4]triazin-4(3H)-one] | 0.6 |
| COc1nc(-c2cccc(-c3cccc(-c4cc5c(=O)n(C)c(CNC[C@@H](O)CC(=O)O)nn5c4)c3Cl)c2Cl)ccc1CNC[C@@H]1CCC(=O)N1 [Example 493, (3S)-4-[[6-[2-Chloro-3-[2-chloro-3-[6-methoxy-5-[[[(2S)-5-oxopyrrolidin-2-yl]methylamino]methyl]-2-pyridyl]phenyl]phenyl]-3-methyl-4-oxo-pyrrolo[2,1-f][1,2,4]triazin-2-yl]methylamino]-3-hydroxy-butanoic acid] | 0.1 |
| COc1nc(-c2cccc(-c3cccc(-c4ccc(CN5CCCC[C@H]5C(=O)O)c(OC)n4)c3Cl)c2Cl)ccc1CNC[C@@H]1CCC(=O)N1 [Example 494, (S)-1-((6-(2,2′-Dichloro-3′-(6-methoxy-5-(((((S)-5-oxopyrrolidin-2-yl)methyl)amino)-methyl)pyridin-2-yl)-[1,1′-biphenyl]-3-yl)-2-methoxypyridin-3-yl)methyl)piperidine-2-carboxylic acid] | 0.1 |
| COC(=O)C(C)(C)CNCc1nn2cc(-c3cccc(-c4cccc(-c5ccc(CNC[C@@H]6CCC(=O)N6)c(OC)n5)c4Cl)c3Cl)cc2c(=O)n1C [Example 495, Methyl 3-[[6-[2-chloro-3-[2-chloro-3-[6-methoxy-5-[[[(2S)-5-oxopyrrolidin-2-yl]methylamino]methyl]-2-pyridyl]phenyl]phenyl]-3-methyl-4-oxo-pyrrolo[2,1-f][1,2,4]triazin-2-yl]methylamino]-2,2-dimethyl-propanoate] | 0.7 |
| COc1nc(-c2cccc(-c3cccc(-c4cc5c(=O)n(C)c(CNCCC(F)F)nn5c4)c3Cl)c2Cl)ccc1CNC[C@@H]1CCC(=O)N1 [compound 465, (S)-6-(2,2′-Dichloro-3′-(6-methoxy-5-((((5-oxopyrrolidin-2-yl)methyl)amino)methyl)pyridin-2-yl)-[1,1′-biphenyl]-3-yl)-2-(((3,3-difluoropropyl)amino)methyl)-3-methylpyrrolo[2,1-f][1,2,4]triazin-4(3H)-one] | 14 |
| COc1nc(-c2cccc(-c3cccc(-c4cc5c(=O)n(C)c(CNC6CC(C)(O)C6)nn5c4)c3Cl)c2Cl)cc(F)c1CNC[C@@H]1CCC(=O)N1 (stereo partly drawn) [compound 480, (S)-6-(2,2′-dichloro-3′-(4-fluoro-6-methoxy-5-((((5-oxopyrrolidin-2-yl)methyl)amino)methyl)pyridin-2-yl)-[1,1′-biphenyl]-3-yl)-2-(((3-hydroxy-3-methylcyclobutyl)amino)methyl)-3-methylpyrrolo[2,1-f][1,2,4]triazin-4(3H)-one] | 69 |
